Source: article PMC10503797, “Allosteric modulator potentiates β2AR agonist–promoted bronchoprotection in asthma models” (The Journal of Clinical Investigation, 2023)
Values joined by “and” are separate entries in the source; they are usually repeats but may differ in a detail not shown here. Identical values can stand only once. Like-named read-outs stand apart in the source and are kept apart here.

Columns and labels:
[1] = test system: guinea pig lung slices; experiment: Methacholine-induced airway constriction in guinea pig lung slices; format: cell-based; settings: for MCh-induced airway constriction response (Figure 5D): Exp1-6; for EC50: Cavia porcellus
Protocol: All curve fits were generated using the software program GraphPad Prism. Data are represented as mean ± SEM obtained from 6 guinea pigs.
(§1) Precision-cut lung slices were prepared as described previously ([61], [62]). A 3% solution of low melting-point agarose (Gerbu Biotechnik GmbH) in ultrapure water was prepared by heating it a microwave until fully dissolved. […] After filling, the lungs were covered with ice for 30 minutes to solidify the agarose for slicing. […] Lung slices were cut at a thickness of 500 μm and washed several times with slicing buffer to remove debris and washout the isoproterenol. Slices were incubated overnight in a 60 mm dish in sterile incubation buffer: MEM composed of lung slice buffer supplemented with 0.5 mM sodium pyruvate, 1 mM glutamine (Gibco), MEM-amino acids mixture (1:50), MEM-vitamins mixture (1:100; Gibco), and penicillin-streptomycin (1:100; Gibco), pH = 7.2, at 37°C in a CO2- and humidity-controlled atmosphere.
(§2) After washing the slices in medium, individual guinea pig lung slices were mechanically maintained with a Teflon ring with an inner diameter of 7 mm and covered with 1 mL of incubation buffer. […] Image acquisition software (NIS-Elements, Nikon) was used to quantify airway luminal area. Images of the airways were acquired every 2 seconds during the whole course of the experiment, starting 2 minutes before the addition of any agent to allow for baseline measurements of the airway caliber. For each methacholine or ovalbumin concentration, the maximal airway constriction was expressed as percentage of the initial (baseline) airway luminal area and plotted against that concentration.

[2] = test system: lung slices obtained from ovalbumin-sensitized guinea pigs; experiment: Ovalbumin-induced airway constriction in lung slices from ovalbumin-sensitized guinea pigs; format: cell-based, guinea pig; settings: Exp1-5
Source text: All curve fits were generated using the software program GraphPad Prism. Data are represented as mean ± SEM of 4–5 guinea pigs (see Table 2 for statistical analyses).
Outbred, male, specified pathogen-free Dunkin Hartley guinea pigs (Charles River Laboratory) weighing 200 to 400 g were used. The animals were housed in pairs under a 12-hour light/dark cycle in a temperature- and humidity-controlled room with food and tap water ad libitum. For studies in the guinea pig model of allergic asthma, animals were actively IgE-sensitized to ovalbumin by injecting a suspension containing 100 μg/mL ovalbumin and 100 mg/mL Al(OH)3 in saline. Each animal was injected with 1.0 mL of suspension: 0.5 mL was injected i.p. and 0.5 mL was divided over 7 s.c. sites close to lymph nodes in the neck, paws, and lumbar regions ([24]). Animals were euthanized at least 4 weeks after sensitization.
as §1, §2

[3] = 10 µM Fenoterol, -Log [MCh] 6.5
[4] = 10 µM Fenoterol, -Log [MCh] 7.5

Q: Which “airway area in MCh concentration-response (Figure 5A/5C)” value (“airway area” below) ([1]; 1 µM Fenoterol, -Log [MCh] 2.5) does the source give for CC(Cc1ccc(O)cc1)NCC(O)c1cc(O)cc(O)c1 (centres unmarked) [Fenoterol, fenoterol] here?
A: 0.0

Q: And the “airway area” value ([1]; 1 µM Fenoterol, -Log [MCh] 3)?
A: 0.0

Q: And the “airway area” value ([1]; 1 µM Fenoterol, -Log [MCh] 3.5)?
A: 0.0

Q: And the “airway area” value ([1]; 1 µM Fenoterol, -Log [MCh] 4)?
A: 0.0

Q: What about the “airway area” value ([1]; 1 µM Fenoterol, -Log [MCh] 4.5) of the same compound?
A: 0.0

Q: And the “airway area” value ([1]; 1 µM Fenoterol, -Log [MCh] 7)?
A: 100.3 and 103.0 and 66.3 and 92.9 and 96.6

Q: And the “airway area” value ([1]; 1 µM Fenoterol, -Log [MCh] 7.5)?
A: 101.4 and 100.4 and 106.4 and 96.3

Q: What about the “airway area” value ([1]; 1 µM Fenoterol, -Log [MCh] 8) of the same compound?
A: 99.1 and 105.8 and 109.5 and 112.9

Q: And the “airway area” value [1, 3]?
A: 59.0 and 89.4 and 82.6 and 83.1 and 91.0 and 74.6

Q: What about the “MCh-induced airway constriction response (Figure 5D)” value [1, 3] of the same compound?
A: 59.0 and 89.4 and 82.6 and 83.1 and 91.0 and 74.6

Q: And the “airway area” value ([1]; 10 µM Fenoterol, -Log [MCh] 7)?
A: 77.1 and 109.6 and 109.2 and 101.3 and 91.9

Q: And the “MCh-induced airway constriction response (Figure 5D)” value ([1]; 10 µM Fenoterol, -Log [MCh] 7)?
A: 77.1 and 109.6 and 109.2 and 101.3 and 91.9

Q: And the “airway area” value [1, 4]?
A: 94.2 and 110.7 and 102.7 and 105.1

Q: What about the “MCh-induced airway constriction response (Figure 5D)” value [1, 4] of the same compound?
A: 94.2 and 110.7 and 102.7 and 105.1

Q: And the “airway area” value ([1]; 10 µM Fenoterol, -Log [MCh] 8)?
A: 106.3 and 110.5 and 104.8

Q: What about the “MCh-induced airway constriction response (Figure 5D)” value ([1]; 10 µM Fenoterol, -Log [MCh] 8) of the same compound?
A: 106.3 and 110.5 and 104.8

Q: What about the “MCh-induced airway constriction response (Figure 5D)” value ([1]; 100 µM Fenoterol, -Log [MCh] 6.5) of the same compound?
A: 82.5 and 88.6 and 98.9 and 92.2 and 82.0

Q: What about the “MCh-induced airway constriction response (Figure 5D)” value ([1]; 100 µM Fenoterol, -Log [MCh] 7) of the same compound?
A: 98.1 and 101.4 and 98.8 and 109.0 and 104.9

Q: What about the “MCh-induced airway constriction response (Figure 5D)” value ([1]; 100 µM Fenoterol, -Log [MCh] 7.5) of the same compound?
A: 106.4 and 100.0 and 110.6 and 99.9

Q: And the “MCh-induced airway constriction response (Figure 5D)” value ([1]; 100 µM Fenoterol, -Log [MCh] 8)?
A: 101.0 and 105.4 and 99.3 and 99.7

Q: And the EC50 ([1]; read-out: MCh EC50, 1 μM Fenoterol)?
A: 370 ± 80 nM

Q: What about the EC50 ([1]; read-out: MCh EC50, 10 μM Fenoterol) of the same compound?
A: 560 ± 30 nM

Q: What about the EC50 ([1]; read-out: MCh EC50, 100 μM Fenoterol) of the same compound?
A: 1000 ± 150 nM

Q: And the “OVA-induced airway constriction response (Figure 6)” value ([2]; 0.1 µM Fenoterol, [OVA] 0.001 ng/ml)?
A: 100.0 and 98.0 and 100.9

Q: What about the “OVA-induced airway constriction response (Figure 6)” value ([2]; 0.1 µM Fenoterol, [OVA] 0.01 ng/ml) of the same compound?
A: 100.0 and 105.5 and 96.2 and 100.8

Q: And the “OVA-induced airway constriction response (Figure 6)” value ([2]; 0.1 µM Fenoterol, [OVA] 0.1 ng/ml)?
A: 100 and 99.0

Q: What about the “OVA-induced airway constriction response (Figure 6)” value ([2]; 0.1 µM Fenoterol, [OVA] 1 ng/ml) of the same compound?
A: 100.0 and 109.4 and 99.5 and 95.4

Q: And the “OVA-induced airway constriction response (Figure 6)” value ([2]; 0.1 µM Fenoterol, [OVA] 10 ng/ml)?
A: 109.1 and 98.9 and 69.5

Q: And the “OVA-induced airway constriction response (Figure 6)” value ([2]; 0.1 µM Fenoterol, [OVA] 100000 ng/ml)?
A: 0.0

Q: And the “OVA-induced airway constriction response (Figure 6)” value ([2]; 0.1 µM Fenoterol, [OVA] 1000000 ng/ml)?
A: 0.0

Q: What about the “OVA-induced airway constriction response (Figure 6)” value ([2]; 1 µM Fenoterol, [OVA] 0.001 ng/ml) of the same compound?
A: 103.2 and 100 and 98.0

Q: What about the “OVA-induced airway constriction response (Figure 6)” value ([2]; 1 µM Fenoterol, [OVA] 0.01 ng/ml) of the same compound?
A: 103.0 and 100.0 and 95.8

Q: What about the “OVA-induced airway constriction response (Figure 6)” value ([2]; 1 µM Fenoterol, [OVA] 0.1 ng/ml) of the same compound?
A: 97.3 and 96.9 and 98.7 and 100

Q: And the “OVA-induced airway constriction response (Figure 6)” value ([2]; 1 µM Fenoterol, [OVA] 1 ng/ml)?
A: 103.2 and 98.4 and 95.2 and 100.1 and 99.5

Q: What about the “OVA-induced airway constriction response (Figure 6)” value ([2]; 1 µM Fenoterol, [OVA] 10 ng/ml) of the same compound?
A: 101.0 and 98.4 and 92.9 and 100.7 and 99.7

Q: And the “OVA-induced airway constriction response (Figure 6)” value ([2]; 1 µM Fenoterol, [OVA] 100 ng/ml)?
A: 98.8 and 99.1 and 98.3 and 105.5 and 98.7

Q: What about the “OVA-induced airway constriction response (Figure 6)” value ([2]; 1 µM Fenoterol, [OVA] 1000 ng/ml) of the same compound?
A: 95.3 and 96.8 and 97.2 and 98.0

Q: And the “OVA-induced airway constriction response (Figure 6)” value ([2]; 1 µM Fenoterol, [OVA] 10000 ng/ml)?
A: 91.4 and 95.6 and 97.2 and 105.0 and 93.6
